Experimental data as given in US20170088520A1, “DEUBIQUITINASE INHIBITORS” (PharmAkea, Inc., priority 2014, published 2017).

What was measured:
[1] = test system: PARP cleavage in cells (NCI-H929, Z138, MM.1S, A-375); assay: Analysis of PARP cleavage by Western blotting; type: cell-based; conditions: compound tested at 5 μM; Western blot
In short: (§1)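 NCI-H929, Z138, MM.1S and A-375 cells were treated with compounds at 5 μM, and lysates were Western blotted with anti-Mcl-1 and anti-PARP antibodies, quantified by infrared fluorescence. Activity is a significant drop in Mcl-1 and the appearance of cleaved PARP, each relative to vehicle-treated cells.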

[2] = target: T1, DUB activity in cells (NCI-H929, Z138, MM.1S, A375) (Homo sapiens, UniProt Q93008); assay: HA-Ubiquitin-Vinylsulfone (HA-Ub-VS) cell labeling assay; type: cell-based; conditions: compound tested at 5 μM; HA-Ub-VS labeling of USP9x in cells
T1 construct: endogenous in cells; host or cells: NCI-H929, Z138, MM.1S, A375
T1 sequence (Q93008 whole entry): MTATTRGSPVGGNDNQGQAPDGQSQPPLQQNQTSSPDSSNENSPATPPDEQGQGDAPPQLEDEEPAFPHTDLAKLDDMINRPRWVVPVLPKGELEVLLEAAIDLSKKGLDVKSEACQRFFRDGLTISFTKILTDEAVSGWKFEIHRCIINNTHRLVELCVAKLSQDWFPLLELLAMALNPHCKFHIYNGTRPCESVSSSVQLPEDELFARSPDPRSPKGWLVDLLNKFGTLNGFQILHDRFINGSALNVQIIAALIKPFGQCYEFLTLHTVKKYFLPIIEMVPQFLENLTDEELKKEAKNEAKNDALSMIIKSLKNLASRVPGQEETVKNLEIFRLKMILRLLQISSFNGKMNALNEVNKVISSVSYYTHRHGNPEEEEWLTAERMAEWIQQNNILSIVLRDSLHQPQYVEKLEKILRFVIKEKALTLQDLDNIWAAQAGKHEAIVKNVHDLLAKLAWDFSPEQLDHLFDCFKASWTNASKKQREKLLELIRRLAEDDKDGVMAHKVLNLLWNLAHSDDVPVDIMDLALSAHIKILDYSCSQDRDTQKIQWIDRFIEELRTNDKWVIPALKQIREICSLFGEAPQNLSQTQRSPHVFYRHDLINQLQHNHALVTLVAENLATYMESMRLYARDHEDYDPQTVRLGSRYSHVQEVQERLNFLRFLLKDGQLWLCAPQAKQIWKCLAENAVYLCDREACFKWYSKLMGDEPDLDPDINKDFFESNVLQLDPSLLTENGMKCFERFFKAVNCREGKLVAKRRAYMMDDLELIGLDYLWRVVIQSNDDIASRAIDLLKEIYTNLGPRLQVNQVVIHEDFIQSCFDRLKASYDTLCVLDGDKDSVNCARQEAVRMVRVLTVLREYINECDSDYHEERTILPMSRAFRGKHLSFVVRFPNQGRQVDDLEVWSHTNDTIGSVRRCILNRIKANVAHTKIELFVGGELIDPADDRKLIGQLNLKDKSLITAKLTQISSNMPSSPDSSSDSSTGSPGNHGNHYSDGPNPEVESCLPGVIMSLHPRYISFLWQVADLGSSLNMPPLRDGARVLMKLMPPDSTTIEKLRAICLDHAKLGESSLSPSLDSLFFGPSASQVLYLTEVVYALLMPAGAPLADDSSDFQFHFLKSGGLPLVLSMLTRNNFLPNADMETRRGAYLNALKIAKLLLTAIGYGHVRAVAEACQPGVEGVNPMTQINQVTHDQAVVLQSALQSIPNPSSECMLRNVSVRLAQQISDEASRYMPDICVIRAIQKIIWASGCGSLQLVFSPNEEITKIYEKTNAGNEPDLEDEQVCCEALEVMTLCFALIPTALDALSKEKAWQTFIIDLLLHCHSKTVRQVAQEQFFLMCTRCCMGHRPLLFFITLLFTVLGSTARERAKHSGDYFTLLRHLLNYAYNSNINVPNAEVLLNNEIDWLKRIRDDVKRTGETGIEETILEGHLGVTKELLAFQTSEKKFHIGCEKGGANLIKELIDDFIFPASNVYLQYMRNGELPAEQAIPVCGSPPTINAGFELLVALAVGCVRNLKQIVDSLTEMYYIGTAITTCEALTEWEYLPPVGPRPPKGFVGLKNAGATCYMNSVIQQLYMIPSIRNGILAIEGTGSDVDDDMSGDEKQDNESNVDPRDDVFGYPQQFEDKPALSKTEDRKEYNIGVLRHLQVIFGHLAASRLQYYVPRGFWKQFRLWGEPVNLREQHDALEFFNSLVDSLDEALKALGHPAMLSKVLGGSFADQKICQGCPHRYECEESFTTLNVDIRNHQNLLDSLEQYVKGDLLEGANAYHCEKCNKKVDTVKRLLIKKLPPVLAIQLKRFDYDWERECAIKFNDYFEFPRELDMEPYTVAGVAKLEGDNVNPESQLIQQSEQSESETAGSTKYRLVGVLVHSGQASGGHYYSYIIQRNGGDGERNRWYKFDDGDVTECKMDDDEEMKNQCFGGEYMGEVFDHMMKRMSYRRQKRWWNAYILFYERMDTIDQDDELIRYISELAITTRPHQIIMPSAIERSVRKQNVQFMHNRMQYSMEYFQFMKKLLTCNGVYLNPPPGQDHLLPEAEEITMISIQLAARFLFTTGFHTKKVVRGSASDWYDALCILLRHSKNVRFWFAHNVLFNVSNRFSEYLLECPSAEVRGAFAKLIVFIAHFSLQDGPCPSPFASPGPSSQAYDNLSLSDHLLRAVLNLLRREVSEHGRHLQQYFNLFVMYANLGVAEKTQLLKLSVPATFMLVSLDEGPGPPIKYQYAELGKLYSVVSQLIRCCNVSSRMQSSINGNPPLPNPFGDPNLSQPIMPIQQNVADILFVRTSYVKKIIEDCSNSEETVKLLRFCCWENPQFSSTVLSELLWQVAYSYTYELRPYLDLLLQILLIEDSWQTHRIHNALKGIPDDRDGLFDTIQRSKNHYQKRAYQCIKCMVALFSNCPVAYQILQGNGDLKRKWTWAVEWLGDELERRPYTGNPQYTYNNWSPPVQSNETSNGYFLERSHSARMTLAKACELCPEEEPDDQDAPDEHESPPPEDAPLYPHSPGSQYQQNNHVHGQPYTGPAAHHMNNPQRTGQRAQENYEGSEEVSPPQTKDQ
In short: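 NCI-H929, Z138, MM.1S or A375 cells (1–2×10^6) treated 2–6 h at 37 °C with compound in 0.5% DMSO, here 5 μM. Lysates labeled with HA-Ub-VS for 15–60 min at 37 °C. Labeled DUBs resolved by SDS-PAGE and quantified by anti-HA and anti-β-actin immunoblot with infrared detection.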

[3] = test system: Mcl-1 expression in cells (NCI-H929, Z138, MM.1S, A-375); assay: Analysis of Mcl-1 expression by Western blotting; type: cell-based; conditions: compound tested at 5 μM; Western blot
In short: as §1

[4] = test system: MM.1S myeloma tumor cells; assay: In vivo tumor growth assay (xenograft model); conditions: SCID Beige mice injected with MM.1S myeloma tumor cells; 15 mpk three times per week
Method: Example B-3: In Vivo Tumor Growth Assay
A xenograft model is used to test efficacy of compounds in inhibiting tumor growth. Briefly, 1×10^6-2×10^7 tumor cell suspensions (Z138, A375, MM.1S, VCaP) are injected subcutaneously into the flank regions of mice (SCID, NSG, nude) in an equal volume of matrigel. Tumor volumes are measured using calipers and when the tumor volumes are ˜100 mm^3, test compound is administered every 1-3 days by oral gavage or by injection (intraperitoneal, intravenous, subcutaneous) until tumor volumes of the vehicle treated animals are ˜1000-2000 mm^3. Inhibition of primary tumor growth is evident as a significant decrease in tumor volume relative to the vehicle treated mice.
Following the above protocol using SCID Beige mice injected with MM.1S myeloma tumor cells and dosing with Compound 74 at 15 mpk three times per week, an approximately 50% reduction in tumor volume was observed

Row | Compound | inhibition at 5 µM [2] | PARP cleavage % Inhibition [1] | inhibition at 5 µM [3] | reduction in tumor volume [4]
1 | N#C/C(=C\c1cccc(Br)n1)C(=O)NC1(c2ccc(-c3cccc(C(=O)O)c3)cc2)CCCC1 [Compound 74, (E)-4′-(1-(3-(6-bromopyridin-2-yl)-2-cyanoacrylamido)cyclopentyl)-[1,1′-biphenyl]-3-carboxylic acid] | 50 to 75% | A (A is ≧75% inhibition) | 50 to 75% | approximately 50%
2 | CCOC(=O)c1cccc(-c2cccc(/C=C(\C#N)C(=O)NC3(c4ccccc4)CCCC3)n2)c1F [Compound 60] | 50 to 75% | A (A is ≧75% inhibition) | ≥ 75% | 
3 | N#C/C(=C\c1cccc(Br)n1)C(=O)NC1(c2ccc(C#CC3(O)COC3)cc2)CCCC1 [Compound 75, (E)-3-(6-bromopyridin-2-yl)-2-cyano-N-(1-(4-((3-hydroxyoxetan-3-yl)ethynyl)phenyl)cyclopentyl)acrylamide] | 50 to 75% | A (A is ≧75% inhibition) | ≥ 75% | 
4 | N#C/C(=C\c1cccc(Br)n1)C(=O)NC1(c2ccc(-c3ccc(CC(=O)O)cc3)cc2)CCCC1 [Compound 90, (E)-2-(4′-(1-(3-(6-bromopyridin-2-yl)-2-cyanoacrylamido)cyclopentyl)-[1,1′-biphenyl]-4-yl)acetic acid] | < 25% | D (D is <25% inhibition) | 25 to 50% | 
5 | N#C/C(=C\c1ncc(Br)cc1Br)C(=O)NC1(c2ccc(-c3ccc(C(F)(F)F)nc3)cc2)CCCC1 [Compound 68, (E)-2-cyano-3-(3,5-dibromopyridin-2-yl)-N-(1-(4-(6-(trifluoromethyl)pyridin-3-yl)phenyl)cyclopentyl)acrylamide] | ≥ 75% | A (A is ≧75% inhibition) | ≥ 75% | 
6 | N#C/C(=C\c1cccc(Br)n1)C(=O)NC1(c2ccc(CO)cc2)CCCC1 [Compound 86, (E)-3-(6-bromopyridin-2-yl)-2-cyano-N-(1-(4-(hydroxymethyl)phenyl)cyclopentyl)acrylamide] | 25 to 50% | B (B is 50% to 75% inhibition) | < 25% | 
7 | N#C/C(=C\c1ncc(Br)cc1Br)C(=O)NC1(c2ccc(-c3cccnc3)cc2)CCCC1 [Compound 39, (E)-2-cyano-3-(3,5-dibromopyridin-2-yl)-N-(1-(4-(pyridin-3-yl)phenyl)cyclopentyl)acrylamide] | 50 to 75% | A (A is ≧75% inhibition) | ≥ 75% | 

The next lines start with results.

Row | inhibition at 5 µM [2] | Compound | PARP cleavage % Inhibition [1] | inhibition at 5 µM [3] | reduction in tumor volume [4]
8 | 50 to 75% | N#C/C(=C\c1nc(Cl)ccc1Cl)C(=O)NC1(c2ccccc2)CCCC1 [Compound 7, (E)-3-(3,6-Dichloropyridin-2-yl)-2-cyano-N-(1-phenylcyclopentyl)acrylamide] | A (A is ≧75% inhibition) | ≥ 75% | 
9 | ≥ 75% | N#C/C(=C\c1cccc(Br)n1)C(=O)NC1(c2ccc(O)cc2)CCCC1 [Compound 79, (E)-3-(6-bromopyridin-2-yl)-2-cyano-N-(1-(4-hydroxyphenyl)cyclopentyl)acrylamide] | A (A is ≧75% inhibition) | ≥ 75% | 
10 | ≥ 75% | N#C/C(=C\c1ncc(Br)cc1Br)C(=O)NC1(c2ccccc2)CCCCC1 [Compound 23, (E)-2-Cyano-3-(3,5-dibromopyridin-2-yl)-N-(1-phenylcyclohexyl)acrylamide] | A (A is ≧75% inhibition) | ≥ 75% | 
11 | < 25% | N#C/C(=C\c1cccc(-c2cccc(C(=O)O)c2)n1)C(=O)NC1(c2ccccc2)CCCC1 [Compound 71, (E)-3-(6-(2-cyano-3-oxo-3-((1-phenylcyclopentyl)amino)prop-1-en-1-yl)pyridin-2-yl)benzoic acid] | D (D is <25% inhibition) | < 25% | 
12 | ≥ 75% | Cc1cccc(C2(NC(=O)/C(C#N)=C/c3ncc(Br)cc3Br)CCCC2)c1 [Compound 26, (E)-2-cyano-3-(3,5-dibromopyridin-2-yl)-N-(1-(m-tolyl)cyclopentyl)acrylamide] | A (A is ≧75% inhibition) | ≥ 75% | 
